The results in this text go back to US20220162257A1, “3ALPHA, 5BETA-NEUROACTIVE STEROIDS FOR THE TREATMENT OF EPILEPSY AND SEIZURE DISEASES” (USTAV ORGANICKE CHEMIE A BIOCHEMIE AV CR, V. V. I., priority 2019, published 2022).

Test [1] deals with PTZ-induced seizures in zebrafish (Danio rerio). Briefly: pentetrazol (PTZ)-induced seizures in zebrafish larvae. The class given is in vivo. The following applies: 7 dpf larvae, PTZ 5 mmol/L. The procedure:
Adults wild-type (strain AB) zebrafish (Danio rerio) were maintained at 28-29° C. on a light cycle of 14 h light:10h dark (lights on at 7 am; lights off at 9 pm) at ZeClinics animal facility (Barcelona). All procedures involving animals and their care were conducted accordingly to CEA-OH/9421/2 authorization from Government of Catalonia. Embryos obtained by pairwise mating were raised in E3 media at the controlled temperature of 28.5° C. until 7 days post-fertilization (dpf) when the experiments were performed.
The anticonvulsant activity of the claimed compounds on the nervous system of zebrafish (Danio rerio). This test is the modern alternative to tests in adult animals as Danio rerio is very versatile organism that has a number of physiological similarities to mammals, including humans (Expert Opin. Drug Metab. Toxicol. 2009, 5, 393). Steroidal compounds were tested in three concentrations (1, 3 and 5 μmol.L^−1) on 7 days post-fertilization (dpf) wild-type larvae. As a negative control, sibling larvae were incubated with DMSO 1%, which allows us to detect behavioral alterations of PTZ treated larvae. Seizures were induced by treatment of pentetrazol (PTZ) at the dose 5 mmol.L^−1. Commercially available anti-convulsant drug Topiramate was used as comparator. Results were analyzed with GraphPad Prism software and statistical significance is assessed by the One-way ANOVA statistical analysis followed by Tukey's multiple comparisons test. The zebrafish larvae locomotion and response to visual stimuli are traced and analyzed by the EthoVision XT 12 software and the DanioVision device from Noldus Information Technologies, Wageningen, The Netherlands.
This closed system consists of a camera placed above a chamber with circulating water and a temperature sensor that is set at 28° C. Individualized larvae in a 48-wells plate are placed in the chamber, which can provide different stimuli (light/dark environment, tapping, sound) controlled by the software. Prior to each experiment, larvae were left for 10 minutes in dark for acclimation, then predetermined series of alternating dark and light environment are presented to the larvae. The final experimental protocol is divided in three main part: first a 15 minutes step with light on, then a series of 5 short flashes of light to induce epileptic seizures and finally a 25 minutes dark/light alternating environments phase. Different sets of information can be extrapolated from the different phases: while the first step is useful to detect changes in the total larvae locomotion, the second part allows us to analyze the larval response to a seizure-inducing visual stimulus and measure the seizure characteristics: the maximum velocity and the number of angles turns (specific of seizure erratic movement). The final phase is useful to detect anomalies in larval movement and deviations from the stereotyped behavior (natural locomotor behavior of zebrafish is active in dark and immobile in light). The anticonvulsant effect of compounds was studied at doses of […] for the compound shown in Example 1, Example 2 and Example 3.

The subject of test [2] is PTZ-induced seizures in 12- and 25-day-old rats. In words: PTZ-induced generalized tonic-clonic seizures in immature rats. The class given is in vivo, rat. The procedure: (§1) Anticonvulsant effect of compounds was evaluated in two models of epileptic seizures in immature rats (PTZ model and 6 Hz model). PTZ convulsions were tested in 12- and 25-day-old rats, 6 Hz-induced seizures in 15- and 25-day-old rats. Young adult rats (P60) were also used in either test. Day of birth was taken as P0. Experiments evaluating precognitive effect were performed in adult male rats of the Wistar and Long Evans strain (3 months old, b.w. 300-400 g). All animals were obtained from a breeding facility of Institute of Physiology CAS (certificate No. 1396/2014-MZE-17214) Animals were held in standard conditions (21±1° C., humidity 50-60%, light regime 12/12) with unrestricted access to food and water. All manipulations with animals were performed according to the https://nc3rs.org.uk/arrive-guidelines and to Czech Animal Protection Law 246/1992 Sb. And international directives (EU Directive 2010/63/EU for animals' experiments).
Two age groups of immature male Wistar rats were used in either experiment. In PTZ model P12 corresponding by a maturation of the brain to early postnatal human babies, i.e. to the period where children epileptic encephalopathy mostly resistant to present pharmacotherapy start to appear. The other group—P25 animals corresponds with school-age children. Generalized tonic-clonic seizures were elicited by a subcutaneous injection of PTZ in a dose of 100 mg/kg. The 6 Hz model was tested in P15 (at this age eyes are open and it is not necessary to surgically distract lids). Biphasic pulses with […] were applied transcorneally for 3 s by a constant current stimulator of Ugo Basile company. PTZ induced generalized seizures represent a model of human generalized tonic-clonic seizures, seizures elicited by 6 Hz stimulation are generally taken as a model of temporal (psychomotor, complex partial) seizures. Differences in latencies and seizure severity were evaluated by ANOVA with a subsequent pairwise comparison by Holm-Sidak test. Incidence of seizures were evaluated by Fischer exact test. Critical p value was set at p=0.05.
Anticonvulsant effect was studied in 12- and 25-day-old male Wistar rats. Steroid derivatives were administered at doses of 1, 5 and 10 mg/kg i.p. 20 min before the administration of PTZ (100 mg/kg s.c.).

Test [3] has as its system generalized tonic-clonic seizures in adult rats. In words: seizures in young adult (P60) rats, FIGS. 6A-6C. The class given is in vivo, rat. On the procedure:
FIGS. 6A-6C show anticonvulsant effect of a substance from Example 1 in a model of seizures elicited by 6 Hz transcorneal electrical stimulation in young adult (P60) male rats. Steroid substance in dose 1, 5, or 10 mg/kg i.p. (x-axis) was administered 20 min before the first stimulation. Graph 6A (y-axis in %)—incidence of complete (GTCS) and incomplete, i.e. without the tonic phase (GCS) generalized seizures; graph 6B (y-axis in %)—incidence of minimal clonic seizures; graph 6C (y-axis in s)—latencies of generalized seizures.
as §1
GTCS were present in only one rat after the 10-mg/kg dose.

Another test has as its system latency to feed in rats. Briefly: Novelty suppressed feeding model (NSF). The class given is in vivo, rat. The procedure:
as §1
Behavioral models of the affective disorders are based on exposure to stress. Two behavioral tests were performed: the Elevated plus maze test (EPM, Nat. Protoc. 2007, 2, 322) and the Novelty suppressed feeding model (NSF, Interdiscip. Toxicol. 2017, 10, 40).
In the NSF test, the Compound from Example 1 was administered i.p. 30 min before the test at doses 0.1; 0.3; 1; 3 and 10 mg/kg.

In the case of `CC(=O)[C@H]1CC[C@H]2[C@@H]3CC[C@@H]4C[C@H](OC(=O)C5CCC(=O)N5)CC[C@]4(C)[C@H]3CC[C@]12C` (stereo partly drawn) [Example 1, (3R,5R,8R,9S,10S,13S,14S,17S)-17-Acetyl-10,13-dimethylhexadecahydro-1H-cyclopenta[a]fenantren-3-yl 5-oxopyrrolidine-2-carboxylate], the “epileptiform locomotor activity in the dark phase/light test, sedation” value in test [1] (doses of 1, 3 and 5 mg/kg) was “decreased epileptiform locomotor activity in the dark phase/light test without causing sedation”. In test [1] (doses of 1, 3 and 5 mg/kg (1, 3 and 5 μmol/L in the source)), the “locomotor activity epileptiform induced by PTZ (spontaneous locomotor activity, maximum velocity, angle turns)” value was “significantly reduced the locomotor activity epileptiform induced by PTZ”. For the same compound, the “seizure severity (5-point scale)” value in test [2] (P12 and P25 rats, 1, 5, 10 mg/kg i.p.) was “copied the presence of GTCS”. Moreover, in test [2] (P12 rats, 1 mg/kg i.p.), the “tonic phase of GTCS” value is given as “suppressed the tonic phase of GTCS”. In addition, the incidence of seizures result in test [2] (P12 rats, 5 mg/kg i.p.) is on record as “significantly decrease the incidence of seizures”. In test [2] (P12 rats, 10 mg/kg i.p.), the incidence of seizures entry is listed as “completely suppressed the seizures”. In addition, the “latencies to GTCS” value in test [2] (P12 rats, 1 and 5 mg/kg i.p.) was “significantly prolonged”. In test [2] (P25 rats, 1 mg/kg i.p.), the latencies of seizures entry is given as “not changed”. In addition, in test [2] (P25 rats, 5 and 10 mg/kg i.p.), the animals with seizures entry is recorded as “one animal only” and the “incidence of GTCS” value is recorded as “decrease the incidence of GTCS without a selective effect against the tonic phase”. Also, in test [3] (5 mg/kg i.p.), the “latency to GTCS” value was “significantly decreased”. Also, in test [3] (10 mg/kg i.p.), the “animals with GTCS” value is “only one rat”, the “incidence of generalized tonic-clonic seizures (GTCS)” value is reported as “significantly decreased the incidence” and the minimal clonic seizures entry is “remained unaffected”. Also, the seizure severity entry in test [3] (5 and 10 mg/kg i.p.) was “significantly decreased”. Further, in the test with latency to feed in rats (0.3 mg/kg i.p., 30 min before the test), the “latency to feed (anxiolytic parameter)” value was “significant decrease in latency to feed”. Further, the “latency of feed intake” value in the test on latency to feed in rats (1 and 3 mg/kg i.p.) was “trend to decrease the latency of feed intake”.
